Legend:
Homo sapiens = species on record: Homo sapiens; experiment: Protac activity at E3 Ubiquitin-protein ligase/Focal adhesion kinase in human PC3 cells assessed as induction of FAK protein degradation by immunoblotting analysis relative to control; format: cell-based
cells = conditions: Homo sapiens, PC-3

DC50 (cells) | SMILES | Emax (Homo sapiens)
– | Cc1ncsc1-c1ccc(CNC(=O)[C@@H]2C[C@@H](O)CN2C(=O)[C@@H](NC(=O)CCOCCCOc2ccc(Nc3ncc(C(F)(F)F)c(NCc4cccc(N(C)S(C)(=O)=O)c4)n3)cc2)C(C)(C)C)cc1 | 99%
– | Cc1ncsc1-c1ccc(CNC(=O)[C@@H]2C[C@@H](O)CN2C(=O)[C@@H](NC(=O)COCCOc2ccc(Nc3ncc(C(F)(F)F)c(NCc4cccc(N(C)S(C)(=O)=O)c4)n3)cc2)C(C)(C)C)cc1 | 99%
3.3 nM | Cc1ncsc1-c1ccc(CNC(=O)[C@@H]2C[C@@H](O)CN2C(=O)[C@@H](NC(=O)CCOCCOc2ccc(Nc3ncc(C(F)(F)F)c(NCc4cccc(N(C)S(C)(=O)=O)c4)n3)cc2)C(C)(C)C)cc1 | 99%
– | CN(c1cccc(CNc2nc(Nc3ccc(OCCOCCOCCOCCOCCC(=O)NCCOc4cccc5c4C(=O)N(C4CCC(=O)NC4=O)C5=O)cc3)ncc2C(F)(F)F)c1)S(C)(=O)=O (stereo unspecified) | 87%
26.7 nM | CN(c1cccc(CNc2nc(Nc3ccc(OCCOCCOCCC(=O)NCCOc4cccc5c4C(=O)N(C4CCC(=O)NC4=O)C5=O)cc3)ncc2C(F)(F)F)c1)S(C)(=O)=O (stereo unspecified) | 99%
– | CN(c1cccc(CNc2nc(Nc3ccc(OCCCOCCC(=O)NCCOc4cccc5c4C(=O)N(C4CCC(=O)NC4=O)C5=O)cc3)ncc2C(F)(F)F)c1)S(C)(=O)=O (stereo unspecified) | 99%
– | CNC(=O)c1ccc(Nc2ncc(C(F)(F)F)c(NCc3nccnc3N(C)S(C)(=O)=O)n2)cc1 | 0%
– | Cc1ncsc1-c1ccc(CNC(=O)[C@@H]2C[C@@H](O)CN2C(=O)[C@@H](NC(=O)COCCCOc2ccc(Nc3ncc(C(F)(F)F)c(NCc4cccc(N(C)S(C)(=O)=O)c4)n3)cc2)C(C)(C)C)cc1 | 99%
– | Cc1ncsc1-c1ccc(CNC(=O)[C@@H]2C[C@@H](O)CN2C(=O)[C@@H](NC(=O)CCOCCOCCOc2ccc(Nc3ncc(C(F)(F)F)c(NCc4cccc(N(C)S(C)(=O)=O)c4)n3)cc2)C(C)(C)C)cc1 | 99%

Reference: ChEMBL document CHEMBL4376904, “Bifunctional Pyrimidines as Modulators of Focal Adhesion Kinase” (ACS Med Chem Lett, 2020)
